{
  "source": "patent US11248022B2",
  "about": "“Glypican-3 peptide reagents and methods” (THE REGENTS OF THE UNIVERSITY OF MICHIGAN, priority 2017, dated 2022)",
  "key": {"[1]": {"experiment": "Biodistribution of peptide in excised organs", "assay_type": "in vivo, mice", "conditions": "excised organs 2 hours post injection, n=5", "experimental": "To assess the biodistribution of peptide probe, mice (n=5) were sacrificed 2 hours after injection of 250 μL of 300 μM ALL*-Cy5.5 using a fluorescence imaging system (IVIS Spectrum, PerkinElmer, Mass.). The organs were harvested and imaged ex vivo. Mice injected with scrambled control peptide, QLE*-Cy5.5 and free dye Cy5.5 were imaged with the same filters and exposure time. Absence of auto fluorescence was confirmed in PBS injected mice. The amount of fluorescent signal in each organ was quantified as a percentage of total fluorescence signal (p/s) in each mouse. Ex vivo fluorescence images taken of internal organs as well as resected tumor 2 hours post injection of probes are shown in FIG. 10A. Free Cy5.5 dye and Cy5.5 labeled targeting and scrambled peptides accumulated most in the liver and kidneys of mice, followed by GI tract and spleen."}, "human HBV-derived HCC": {"system": "human HBV-derived HCC", "experiment": "Immunofluorescence on human HBV-derived HCC specimens", "conditions": "5 μM, 15 min", "experimental": "Formalin-fixed specimens of HBV-derived HCC from the bio-bank at the Peking University People's Hospital were used. The specimens were deparaffinized, and antigen retrieval was performed using standard methods. Specimens of HCC and non-tumorous liver were cut in 10 μm sections, and incubated with the ALL*-Cy5.5 peptide reagent at a concentration of 5 μM in 1× PBS for 15 min at RT. The sections were washed 3× with PBS and incubated overnight at 4° C. with a 1:1000 dilution of primary anti-GPC3 antibody (Santa Cruz Biotechnology, 1G12, sc-65443) overnight at 4° C. The sections were washed with PBS 3× and incubated with 1:500 dilution of Alexa Fluor 488-labeled secondary goat […] antibody (Invitrogen) for 1 hour at RT. The sections were fixed with 4% PFA for 10 min. The sections were then mounted with ProLong Gold reagent containing DAPI (Invitrogen). Confocal fluorescence images were collected with DAPI, FITC and Cy5.5 filters. A Pearson's correlation coefficient will be measured to assess co-localization of peptide and antibody binding."}, "SK-Hep1 cells": {"system": "SK-Hep1 cells", "experiment": "Confocal microscopy of peptide binding to SK-Hep1 cells", "assay_type": "cell-based, human", "experimental": "(§1) FIGS. 6-2A-Q show validation of specific peptide binding to cells in vitro. […] The Hep3B versus SK-Hep1 difference was also larger for antibody than QLE (P=2.3×10^−8, 6.0-fold larger). Intensity was measured with 6 replicates per condition and fitted to an ANOVA model with terms for 9 means to log-transformed data. […] We further validated specific peptide binding to GPC3 using siRNA knockdown. […] Q) Quantified fluorescence intensities. The siCL vs siGPC3 difference was 7.4 times bigger for ALL than the same difference for QLE (P=7.8×10^−5), and the difference for antibody was 8.9 times bigger than for QLE (P=2.5×10^−5), by ANOVA on log-transformed data. Results are an average of 6 images collected independently.\n(§2) On confocal microscopy, it was shown that ALL*-Cy5.5 binds to the surface (arrows) of cells with different levels of GPC3 expression. […] GPC3 is highly overexpressed in Hep3B cell cytosol and membrane while moderately expressed in HepG2 cells. No GPC3 expression is observed in SK-Hep1 cells. Tubulin serves as loading control for either cytosol or membrane fractions loaded."}, "SK-Hep1 xenograft tumors": {"system": "SK-Hep1 xenograft tumors", "experiment": "Immunostaining on GPC3 negative SK-Hep1 xenograft sections", "set-up": "species or system mice", "conditions": "no GPC3 expression", "text": "FIGS. 18A-D show immunostaining on GPC3 negative HCC xenograft tumor.\n(§3) The specimens were also sectioned for collection of confocal images to perform microscopic validation of peptide binding ex vivo."}, "Hep3B human HCC cells": {"system": "Hep3B human HCC cells", "experiment": "Confocal microscopy of peptide binding to Hep3B cells", "assay_type": "cell-based", "experimental": "as §1, §2"}, "Hep3B cells": {"system": "Hep3B cells", "experiment": "Apparent association time constant on Hep3B cells by flow cytometry", "assay_type": "binding, human", "experimental": "The apparent association time constant (k) was also measured for the optimized GPC3 peptide to provide an assessment of how rapidly the peptide binds. The ALL*-Cy5.5 peptide reagent was incubated with Hep3B cells over time intervals ranging from 0 to 40 min. Fluorescence intensities were measured on flow cytometry. The median fluorescence intensity (y) was ratioed with that of Hep3B cells without addition of peptide reagent at different time points (t)."}, "Hep3B xenograft": {"system": "Hep3B xenograft", "experiment": "In vivo NIR laparoscopic imaging of HCC xenograft tumors", "set-up": "species or system mice", "experimental": "Human HCC cells Hep3B and SK-Hep1 were cultured in Eagle's Minimum Essential Medium (EMEM) at 37° C. in 5% CO2, and supplemented with 10% fetal bovine serum (FBS) and 1% penicillin/streptomycin. Western blotting was performed to validate expression level of GPC3. Cells were diluted in growth factor reduced (GFR) Matrigel Matrix (Corning), and injected into one flank of female (to avoid male dominance within a cage) nude athymic mice (nu/nu, Jackson Laboratory) at 4 to 6 weeks of age with weight between 20 to 25 grams. ˜5×10^6 cells were implanted per mouse.\nA standard surgical laparoscope (#49003 AA, HOPKINS® II Straight Forward Telescope 0°, Karl Storz) that is ˜10 mm in diameter and has a 31 cm length rigid sheath was adapted to collect reflectance and fluorescence concurrently. Nude mice with human HCC xenograft 2 weeks post implantation were tail vein injected with 200 μL 300 μM GPC3 peptide ALL*-Cy5.5. During imaging, the mice were anesthetized with inhaled isoflurane. We first used laparoscope with white light illumination to exam the xenograft. Laparoscopic images were taken two hours post injection in both fluorescence and reflection mode simultaneously with excitation solid state diode laser (660-S, Toptica Photonics) to deliver excitation at λex=660 nm into the fiber optic light guide. Images were collected at 5 frames/sec with a laser power of 1.2 mW. Hoechst 33342 (H1399, Life Technologies) at a dose of 10 mg/kg diluted in 200 μL of PBS was delivered intravenously via a tail vein injection to stain the cell nuclei 30 minutes before sacrificing the mouse. Xenograft tumors were resected and confocal fluorescence images were collected with Cy5.5 and DAPI filters 50 μm beneath the surface using a confocal microscope (Leica SPSX Upright 2-Photon Confocal Microscope). Following imaging, resected xenografts were fixed and formalin embedded for immunohistochemistry and H&E staining as described previously.\nFluorescence images of mouse HCC xenograft taken at 2 hrs post peptide injection were registered with corresponding reflectance images taken simultaneously. The fluorescence intensity of each pixel in the image was divided by intensity of corresponding pixel in the reflectance image in order to account for the difference in distance between each pixel and the laser source. A heat map image was generated from the resulting ratios at each pixel. Image segmentation was performed automatically by custom Matlab (Mathworks) software program using Ostu's Method [Otsu, Automatica, 11(285-296): 23-27 (1975)]. Target to background ratio of each processed image was calculated by dividing the average intensity of pixels inside the segmented tumor and that of those within 30 pixels outside of segmentation outline."}, "Hep3B xenograft tumors": {"system": "Hep3B xenograft tumors", "experiment": "Ex vivo confocal validation on Hep3B xenograft sections and normal liver", "set-up": "species or system mice", "text": "as §3"}},
  "note": "Read-outs that look alike come from different tables or passages of the source. Ends that are not written are not given here.",
  "data": [
    {"sequence": "ALLANHEELFQT (SEQ ID NO: 1) peptide labeled with Cy5.5 via a GGGSK linker on the C-terminus (ALLANHEELFQTGGGSK-{Cy5.5}) [ALL*-Cy5.5]", "values": [
      {"measurement": "signal in the tumor vs scrambled probe, GPC3 negative tumor, free dye", "setting": "[1]", "result": "significantly higher"},
      {"measurement": "binding to section of HBV-derived HCC on immunofluorescence", "setting": "human HBV-derived HCC", "result": "strong binding"},
      {"measurement": "fluorescence intensity from binding to cell surface", "setting": "SK-Hep1 cells", "result": "minimal signal"},
      {"measurement": "staining of xenograft sections", "setting": "SK-Hep1 xenograft tumors", "result": "No staining"},
      {"measurement": "intensity difference Hep3B vs SK-Hep1 relative to the same difference for QLE*", "setting": "Hep3B human HCC cells; 6 replicates, log-transformed data", "result": 8.2, "unit": "fold"},
      {"measurement": "fluorescence intensity from binding to cell surface", "setting": "Hep3B human HCC cells; Hep3B cells, confocal microscopy", "result": "strong fluorescence intensity"},
      {"measurement": "apparent association time constant k", "setting": "Hep3B cells", "result": 0.11, "unit": "min⁻¹"},
      {"measurement": "onset of binding", "setting": "Hep3B cells", "result": 9.1, "unit": "min"},
      {"measurement": "apparent association time constant k", "setting": "Hep3B cells; FIG. 8B legend", "result": 0.11, "unit": "min⁻¹"},
      {"measurement": "staining of cell surface on excised tumor xenograft (confocal)", "setting": "Hep3B xenograft; 40× magnification", "result": "intense staining"},
      {"measurement": "T/B ratio relative to QLE*-Cy5.5", "setting": "Hep3B xenograft; NIR laparoscope, 2 hours", "result": 2.8, "unit": "fold"},
      {"measurement": "target-to-background (T/B) ratio", "setting": "Hep3B xenograft; NIR laparoscope, 2 hours after i.v. injection, n=8", "result": "8.3±1.3"},
      {"measurement": "cell surface staining of xenograft sections", "setting": "Hep3B xenograft tumors; Hep3B xenograft sections, compared with QLE*-Cy5.5", "result": "increased cell surface staining"},
      {"measurement": "intensity from peptide binding, HCC vs normal", "setting": "Hep3B xenograft tumors; n=26", "result": 2.22, "unit": "fold"},
      {"measurement": "staining of normal mouse liver", "setting": "Hep3B xenograft tumors; normal mouse liver sections", "result": "Minimal staining"}
    ]}
  ]
}
